Non-standard residues stand in square brackets, D forms with d. Residues, ends and D or L forms follow the SMILES beside them. *: point of attachment. sY = N[C@@H](Cc1ccc(OS(=O)(=O)O)cc1)C(=O)O; Cbz = O=C(OCc1ccccc1)*
Tests used:
CCK receptor = conditions: literature; cited from earlier work
CCK-B receptors = conditions: literature, Bock et al. 1989; cited from earlier work
gastrin = conditions: in vitro, literature; cited from earlier work
CCK Receptor (Pancreas) = molecular target: T1, CCK Receptor (Pancreas) (Rattus norvegicus, UniProt P30551); assay: biochemical; assay type: binding, Male Sprague-Dawley rats; conditions: rat pancreas membranes, 125I-CCK-8 50 pM, 25° C., 2 hours; read-out: IC50, 125I-CCK Pancreas
T1 construct: The whole pancreas was dissected free of fat tissue and was homogenized; from tissue; host or cells: rat whole pancreas, homogenate membranes
T1 sequence (P30551 1-444): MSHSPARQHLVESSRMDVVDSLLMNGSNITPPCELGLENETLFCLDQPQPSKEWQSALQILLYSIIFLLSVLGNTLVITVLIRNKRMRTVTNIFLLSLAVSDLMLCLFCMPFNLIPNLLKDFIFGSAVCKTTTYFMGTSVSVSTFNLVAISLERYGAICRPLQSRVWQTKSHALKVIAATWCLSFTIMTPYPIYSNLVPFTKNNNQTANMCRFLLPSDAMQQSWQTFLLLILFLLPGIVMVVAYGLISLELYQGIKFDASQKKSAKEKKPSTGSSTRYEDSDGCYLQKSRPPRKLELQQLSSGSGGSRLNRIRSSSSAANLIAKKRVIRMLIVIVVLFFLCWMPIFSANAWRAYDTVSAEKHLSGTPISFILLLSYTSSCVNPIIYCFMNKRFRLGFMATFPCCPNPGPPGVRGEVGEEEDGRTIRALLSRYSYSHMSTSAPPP
Protocol: 1. CCK Receptor Binding (Pancreas)
CCK-8 sulphated was radiolabelled with ^125 I-Bolton Hunter reagent (2000 Ci/mmole). Receptor binding was performed according to Chang and Lotti (Proc. Natl. Acad. Sci. 83, 4923-4926, 1986) with minor modifications.
Male Sprague-Dawley rats (150-200 g) were sacrificed by decapitation. The whole pancreas was dissected free of fat tissue and was homogenized in 25 volumes of ice-cold 10 mM Hepes buffer with 0.1% soya bean trypsin inhibitor (pH 7.4 at 25° C.) with a Kinematica Polytron. The homogenates were centrifuged at 47,800 g for 10 min. Pellets were resuspended in 10 volumes of binding assay buffer (20 mM Hepes, 1 mM EGTA, 5 mM MgCl2, 150 mM NaCl, bacitracin 0.25 mg/ml, soya bean trypsin inhibitor 0.1 mg/ml, and bovine serum albumin 2 mg/ml, pH 6.5 at 25° C.) using a teflon homogenizer, 15 strokes at 500 rpm. The homogenate was further diluted in binding assay buffer to give a final concentration of 0.5 mg original wet weight/1 ml buffer. […] All assays were run in duplicate. The reaction mixtures were incubated at 25° C. for 2 hours and the reaction terminated by rapid filtration (Brandell 24 well cell harvester) over Whatman GF/C filters, washing 3×4 mls with ice-cold 100 mM NaCl. The radioactivity on the filters was counted with a LKB gamma counter.
(§1) Drug displacement studies were performed with at least 10 concentrations of compounds of formula 1 and the IC50 values were determined by regression analysis.

CCK Receptor (Brain) = molecular target: T2, CCK Receptor (Brain) (Cavia porcellus, UniProt H0VZC5); assay: CCK Receptor Binding (Brain), inhibition of 125I-CCK-8 binding; design: species or system Male Hartley guinea pigs
T2 construct: the cortex was removed and homogenized in 25 mL ice-cold 0.32M sucrose; from tissue; host or cells: guinea pig cerebral cortex, P2 membrane pellet
T2 sequence (H0VZC5 1-426): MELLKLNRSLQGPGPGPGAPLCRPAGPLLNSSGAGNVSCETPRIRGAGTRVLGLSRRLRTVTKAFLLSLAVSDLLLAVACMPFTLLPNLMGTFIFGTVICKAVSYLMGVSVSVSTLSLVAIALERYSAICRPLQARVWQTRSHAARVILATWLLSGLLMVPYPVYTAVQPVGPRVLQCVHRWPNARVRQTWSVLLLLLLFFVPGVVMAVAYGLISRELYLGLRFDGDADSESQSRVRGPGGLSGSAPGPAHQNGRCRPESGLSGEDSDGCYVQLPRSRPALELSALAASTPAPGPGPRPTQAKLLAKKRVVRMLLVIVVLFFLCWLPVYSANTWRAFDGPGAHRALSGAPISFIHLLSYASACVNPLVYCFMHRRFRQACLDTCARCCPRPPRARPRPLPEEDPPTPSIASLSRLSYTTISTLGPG
Protocol: 2. CCK Receptor Binding (Brain)
CCK-8 sulphated was radiolabelled and the binding was performed according to the description for the pancreas method with minor modifications.
Male Hartley guinea pigs (300-500 g) were sacrificed by decapitation and the cortex was removed and homogenized in 25 mL ice-cold 0.32M sucrose. The homogenates were centrifuged at 1000 g for 10 minutes and the resulting supernatant was recentrifuged at 20,000 g for 20 minutes. […] All assays were run in duplicate. The reaction mixtures were incubated at 25° C. for 2 hours and then the reaction was terminated on Whatman GF/C filters by rapid filtration (Brandell 24 well cell Harvester) with 3×5 ml washes of cold 100 mM NaCl. The radioactivity on the filters was then counted with a LKB gamma counter.
as §1

Gastrin Receptor = molecular target: T3, Gastrin Receptor (Cavia porcellus, UniProt H0VZC5); assay: Gastrin Receptor Binding in Guinea Pig Gastric Glands; design: species or system guinea pigs
T3 construct: from tissue; host or cells: guinea pig gastric mucosal glands (collagenase-dispersed)
T3 sequence (H0VZC5 1-426): T2 sequence (H0VZC5 1-426)
Protocol: Gastrin antagonist activity of compounds of Formula I is determined using the following assay.
A. Gastrin Receptor Binding in Guinea Pig Gastric Glands
Preparation of guinea pig gastric mucosal glands
Guinea pig gastric mucosal glands were prepared by the procedure of Chang et al., Science 230, 177-179 (1985) with slight modification. Gastric mucosa from guinea pigs (300-500 g body weight, male Hartley) were isolated by scraping with a glass slide after washing stomachs in ice-cold, aerated buffer consisting of the following: 130 mM NaCl, 12 mM NaHCO3, 3 mM NaH2 PO4, 3 mM Na2 HPO4, 3 mM K2 HPO4, 2 mM MgSO4, 1 mM CaCl2, 5 mM glucose and 4 mM L-glutamine, 50 mM HEPES, 0.25 mg/ml bacitracin, 0.10 mg/ml soya bean trypsin inhibitor, 0.1 mg/ml bovine serum albumin, at pH 6.5, and then incubated in a 37° C. shaking water bath for 40 minutes in buffer containing 1 mg/ml collagenase and bubbled with 95% O2 and 5% CO2. The tissues were passed twice through a 5 ml syringe to liberate the gastric glands, and then filtered through Nitex #202 gauge nylon mesh. The filtered glands were centrifuged at 272 g for 5 minutes and washed twice by resuspension in 25 ml buffer and centrifugation.
The washed guinea pig gastric glands prepared as above were resuspended in 25 ml of standard buffer. […] The radioactivity on the filters was measured using a LKB gamma counter.

Structure (SMILES): CSCC[C@H](NC(=O)[C@H](Cc1ccc(OS(=O)(=O)O)cc1)NC(=O)OCc1ccccc1)C(=O)NCC(=O)N[C@@H](Cc1c[nH]c2ccccc12)C(=O)N[C@@H](CCSC)C(=O)N[C@@H](CC(=O)O)C(N)=O [Cbz-Tyr(SO3 H)-Met-Gly-Trp-Met-Asp-NH2] (Cbz-[sY]MGWMD-NH2)
- CCK receptor activity in words (CCK receptor): partial agonist

Structure (SMILES): CCCC(=O)Nc1nc2c(ncn2[C@@H]2O[C@@H]3COP(=O)(O)O[C@H]3[C@H]2OC(=O)CCC)c(=O)[nH]1 [dibutyryl cyclic GMP]
- CCK receptor activity in words (CCK receptor): the most potent

Structure (SMILES): Cc1cccc(NC(=O)N[C@@H]2N=C(c3ccccc3)c3ccccc3N(C)C2=O)c1 [(R)-N-(2,3-dihydro-1-methyl-2-oxo-5-phenyl-1H-1,4-benzodiazepin-3-yl)-N^1-(3-methylphenyl) urea]
- CCK-B receptor antagonism in words (CCK-B receptors): potent and selective antagonist of CCK-B receptors

Structure (SMILES): CCCN(CCC)C(=O)C(CCC(=O)O)NC(=O)c1ccccc1 (stereo not shown) [proglumide]
- gastrin antagonism in words (gastrin): very weak in vitro antagonists

Structure (SMILES): CN1C(=O)[C@H](NC(=O)Nc2cccc(-c3nnn[nH]3)c2)N=C(c2ccccc2)c2ccccc21 [Example 1, N-{1,3-Dihydro-1-methyl-2-oxo-5-phenyl-1H-1,4-benzodiazepin-3-yl}-N'-{[3-(1H-tetrazol-5-yl)phenyl]urea}]
- IC50 (CCK Receptor (Pancreas)): 400 nM
- IC50 (CCK Receptor (Brain)): 1 nM
- IC50 (Gastrin Receptor): 0.7 nM
